Assay results: the supplement of paper PMC11061612

What was measured:
Experiment in all cases: combination Emax (second highest fraction inhibited in the dose matrix, 72 h); higher = more inhibition; extreme values may be limits of the assay
[1] = system: COR-L88 (Small Cell Lung Carcinoma)
Summary of the method: (§1)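 Cell lines grown in DMEM/F12 or RPMI with 10% FBS were plated in 1536-well plates and held 24 hours at 37°C, 5% CO2 before 72 hours of exposure to two-drug dose matrices, with DMSO typically at 0.2%. CellTiter-Glo 2.0 luminescence gave viability, which was converted to inhibition. Vehicle wells were set to 0 and blank wells to 1. Combination Emax is the second-highest inhibition in the matrix, and Bliss excess is the observed combination effect minus the expected EA + EB − EA·EB, where EA and EB are the single-agent effects.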

[2] = system: DBTRG-05MG (Glioblastoma)
Summary of the method: as §1

GAK (Melanoma) = system: GAK (Melanoma)
Summary of the method: as §1

KALS-1 (Glioblastoma) = system: KALS-1 (Glioblastoma)
Summary of the method: as §1

[3] = system: LCLC-103H (Non-Small Cell Lung Carcinoma)
Summary of the method: as §1

[4] = system: MOLP-8 (Plasma Cell Myeloma)
Summary of the method: as §1

[5] = system: MOLT-13 (T-Lymphoblastic Leukemia)
Summary of the method: as §1

[6] = system: MONO-MAC-6 (Acute Myeloid Leukemia)
Summary of the method: as §1

[7] = system: NAMALWA (Burkitt's Lymphoma)
Summary of the method: as §1

[8] = system: NCI-H1876 (Small Cell Lung Carcinoma)
Summary of the method: as §1

[9] = system: OAW-28 (Ovarian Carcinoma)
Summary of the method: as §1

[10] = system: P30-OHK (B-Lymphoblastic Leukemia)
Summary of the method: as §1

[11] = system: P32-ISH (Burkitt's Lymphoma)
Summary of the method: as §1

[12] = system: PA-TU-8988T (Pancreatic Carcinoma)
Summary of the method: as §1

[13] = system: PL4 (Pancreatic Carcinoma)
Summary of the method: as §1

SK-N-SH (Neuroblastoma) = system: SK-N-SH (Neuroblastoma)
Summary of the method: as §1

[14] = system: SNU-407 (Colorectal Carcinoma)
Summary of the method: as §1

[15] = system: SUP-M2 (T-Cell Non-Hodgkin's Lymphoma)
Summary of the method: as §1

T47D (Breast Carcinoma) = system: T47D (Breast Carcinoma)
Summary of the method: as §1

[16] = system: T84 (Colorectal Carcinoma)
Summary of the method: as §1

SMILES | combination Emax [1] | combination Emax [2] | combination Emax (GAK (Melanoma)) | combination Emax (KALS-1 (Glioblastoma)) | combination Emax [3] | combination Emax [4] | combination Emax [5] | combination Emax [6] | combination Emax [7] | combination Emax [8] | combination Emax [9] | combination Emax [10] | combination Emax [11] | combination Emax [12] | combination Emax [13] | combination Emax (SK-N-SH (Neuroblastoma)) | combination Emax [14] | combination Emax [15] | combination Emax (T47D (Breast Carcinoma)) | combination Emax [16]
C=CCn1c(=O)c2cnc(Nc3ccc(N4CCN(C)CC4)cc3)nc2n1-c1cccc(C(C)(C)O)n1 [AZD1775] + C1CN(CCC1(C(=O)N[C@@H](CCO)C2=CC=C(C=C2)Cl)N)C3=NC=NC4=C3C=CN4 [Capivasertib] (first compound max 3 µM, partner max 3 µM) | 0.703 | 0.474 | 0.73 | 0.766 | 0.626 | 0.91 | 0.973 | 0.95 | 0.981 | 0.956 | 0.593 | 0.947 | 1 | 0.851 | 0.737 | 0.711 | 0.675 | 1 | 0.555 | 0.785
CCN(CCO)CCCOc1ccc2c(Nc3cc(CC(=O)Nc4cccc(F)c4)[nH]n3)ncnc2c1 [AZD2811] + O=C(c1cc(Cc2n[nH]c(=O)c3ccccc23)ccc1F)N1CCN(C(=O)C2CC2)CC1 [Olaparib] (first compound max 1 µM, 7x7, partner max 10 µM) | 0.295 | 0.242 | 0.295 | 0.296 | 0.752 | 0.434 | 0.997 | 0.783 | 0.617 | 0.821 | 0.213 | 0.848 | 0.946 | 0.208 | 0.269 | 0.479 | 0.306 | 0.975 | 0.233 | 0.112
CC1(C)CCC(CN2CCN(c3ccc(C(=O)NS(=O)(=O)c4ccc(NCC5CCOCC5)c([N+](=O)[O-])c4)c(Oc4cnc5[nH]ccc5c4)c3)CC2)=C(c2ccc(Cl)cc2)C1 [Venetoclax] + C[C@@H](Nc1cc(F)cc(F)c1)c1cc(C(=O)N(C)C)cc2c(=O)cc(N3CCOCC3)oc12 [AZD8186] (first compound max 1 µM, 7x7, partner max 3 µM) | 0.617 | 0.12 | 0.242 | 0.741 | 0.253 | 0.455 | 0.431 | 0.808 | 0.428 | 0.182 | 0.331 | 0.794 | 0.341 | 0.257 | 0.243 | 0.403 | 0.142 | 0.344 | 0.272 | 0.101
Cn1cnc2c(F)c(Nc3ccc(Br)cc3Cl)c(C(=O)NOCCO)cc21 [Selumetinib] + CCN(CCO)CCCOc1ccc2c(Nc3cc(CC(=O)Nc4cccc(F)c4)[nH]n3)ncnc2c1 [AZD2811] (first compound max 10 µM, 7x7, partner max 1 µM) | 0.257 | 0.282 | 0.629 | 0.417 | 0.376 | 0.417 | 1 | 0.703 | 0.336 | 0.792 | 0.408 | 0.835 | 0.867 | 0.321 | 0.572 | 0.289 | 0.726 | 0.998 | 0.29 | 0.312
C[C@@H](c1ccc2nccn2c1)n1nnc2ncc(-c3cnn(C)c3)nc21 [Savolitinib] + Cc1c2c(nn1C)CSCc1cc(n(C)n1)CSc1cc(c3ccccc3c1)OCCCc1c(C(=O)O)n(C)c3c-2c(Cl)ccc13 [AZD5991] (first compound max 1 µM, 7x7, partner max 1 µM) | 0.23 | 0.0768 | 0.264 | 0.186 | 0.211 | 1 | 0.99 | 0.997 | 0.956 | 0.32 | 0.142 | 0.683 | 1 | 0.243 | 0.189 | 0.267 | 0.666 | 1 | 0.23 | 0.103
COc1cccc(OCCCN)c1-c1cc(Nc2cnc(C#N)cn2)n[nH]1 [Prexasertib] + CN(C)CCCOc1ccc(-c2ccc3ncc4c(c3c2)n(C2CCOCC2)c(=O)n4C)cn1 [AZD0156] (first compound max 1 µM, 7x7, partner max 1 µM) | 0.843 | 0.409 | 0.718 | 0.839 | 0.718 | 0.894 | 1 | 0.963 | 0.991 | 0.968 | 0.563 | 0.987 | 1 | 0.38 | 0.806 | 0.876 | 0.653 | 1 | 0.426 | 0.815
Cc1cc2ncnn2cc1Nc1ncc2c(n1)n(C1CCOCC1)c(=O)n2C [AZD7648] + O=C(c1cc(Cc2n[nH]c(=O)c3ccccc23)ccc1F)N1CCN(C(=O)C2CC2)CC1 [Olaparib] (first compound max 10 µM, 7x7, partner max 10 µM) | 0.231 | 0.0842 | 0.0973 | 0.18 | 0.299 | 0.382 | 0.35 | 0.317 | 0.578 | 0.723 | 0.188 | 0.364 | 0.207 | 0.339 | 0.28 | 0.444 | 0.239 | 0.831 | 0.313 | 0
COc1nnc2ccc(N3CCC(c4ccc(OCCN5CCN(C)C(=O)[C@H]5C)cc4)CC3)nn12 [AZD5153] + Cc1c2c(nn1C)CSCc1cc(n(C)n1)CSc1cc(c3ccccc3c1)OCCCc1c(C(=O)O)n(C)c3c-2c(Cl)ccc13 [AZD5991] (first compound max 1 µM, 7x7, partner max 1 µM) | 0.807 | 0.205 | 0.836 | 0.814 | 0.414 | 1 | 1 | 1 | 0.966 | 0.949 | 0.666 | 1 | 1 | 0.886 | 0.63 | 0.526 | 0.977 | 1 | 0.571 | 0.23
Cc1nc(Nc2ncc(C(=O)Nc3c(C)cccc3Cl)s2)cc(N2CCN(CCO)CC2)n1 [Dasatinib] + CC(=O)Nc1cccc(-n2c(=O)n(C3CC3)c(=O)c3c(Nc4ccc(I)cc4F)n(C)c(=O)c(C)c32)c1 [Trametinib] (first compound max 2 µM, 7x7, partner max 1 µM) | 0.2 | 0.556 | 0.788 | 0.917 | 0.326 | 0.621 | 0.559 | 0.589 | 0.407 | 0.165 | 0.524 | 0.202 | 0.411 | 0.887 | 0.955 | 0.476 | 0.756 | 0.126 | 0.344 | 0.816
COc1cccc(OCCCN)c1-c1cc(Nc2cnc(C#N)cn2)n[nH]1 [Prexasertib] + C=CCn1c(=O)c2cnc(Nc3ccc(N4CCN(C)CC4)cc3)nc2n1-c1cccc(C(C)(C)O)n1 [AZD1775] (first compound max 1 µM, partner max 1 µM) | 0.853 | 0.331 | 0.783 | 0.901 | 0.854 | 0.909 | 1 | 1 | 0.989 | 1 | 0.569 | 0.98 | 1 | 0.898 | 0.852 | 0.939 | 0.784 | 1 | 0.704 | 0.861
COc1nnc2ccc(N3CCC(c4ccc(OCCN5CCN(C)C(=O)[C@H]5C)cc4)CC3)nn12 [AZD5153] + CC1(C)CCC(CN2CCN(c3ccc(C(=O)NS(=O)(=O)c4ccc(NCC5CCOCC5)c([N+](=O)[O-])c4)c(Oc4cnc5[nH]ccc5c4)c3)CC2)=C(c2ccc(Cl)cc2)C1 [Venetoclax] (first compound max 1 µM, 7x7, partner max 1 µM) | 0.348 | 0.252 | 0.478 | 0.616 | 0.376 | 0.945 | 0.987 | 0.989 | 0.761 | 0.3 | 0.352 | 1 | 0.701 | 0.664 | 0.572 | 0.623 | 0.902 | 0.965 | 0.483 | 0.219
